From patent US20240409536A1, “COMPOUNDS AND METHODS FOR MODULATING SPLICING” (REMIX THERAPEUTICS INC., priority 2021, published 2024)

Assays:
HTT mRNA = assay: Gene panel canonical junction qPCR assay, HTT CJ mRNA decrease; assay type: cell-based, human; conditions: Homo sapiens, canonical junction qPCR, read-out: HTT IC50 (decrease in CJ mRNA levels)
Method in brief: (§1)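 A673 or K562 cells treated with compound; canonical exon-exon junction mRNA quantified by cDNA synthesis and RT-qPCR with junction-spanning primer/probe, normalized to GAPDH, GUSB or PPIA and DMSO (2^(−ΔΔCt)). Percent response from set ΔCt assay windows fitted to 4-parameter logistic; IC50 for CJ decrease.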

MYB mRNA = assay: Gene panel canonical junction qPCR assay, MYB CJ mRNA decrease; assay type: cell-based, human; conditions: Homo sapiens, canonical junction qPCR, read-out: MYB IC50 (decrease in CJ mRNA levels)
Method in brief: as §1

SMN2 mRNA = assay: Gene panel canonical junction qPCR assay, SMN2 CJ mRNA decrease; assay type: cell-based, human; conditions: Homo sapiens, canonical junction qPCR, read-out: SMN2 IC50 (decrease in CJ mRNA levels)
Method in brief: as §1

Target C mRNA = assay: Gene panel canonical junction qPCR assay, Target C CJ mRNA decrease; assay type: cell-based; conditions: Homo sapiens, canonical junction qPCR, read-out: Target C IC50 (decrease in CJ mRNA levels)
Method in brief: as §1

HiBiT-tagged HTT protein = assay: HiBiT protein abundance assay, HTT (K562 HiBiT knock-in cells); assay type: cell-based, human; conditions: 24 hours
Method in brief: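 Luminescent readout of HiBiT-tagged endogenous protein after lysis, following 24 h compound exposure of knock-in K562 lines at 37 °C. Ten 3-fold concentrations from 10 μM final, DMSO ≤0.25%. Four-parameter logistic fit of normalized response gives concentration halving abundance (IC50).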

Row | IC50 (HTT mRNA) [nM] | IC50 (MYB mRNA) [nM] | IC50 (SMN2 mRNA) [nM] | IC50 (Target C mRNA) [nM] | IC50 (HiBiT-tagged HTT protein) [nM] | Compound
1 | 1000 to 10000 | 100 to 1000 | 100 to 1000 | 1000 to 10000 | 1000 to 10000 | Cc1cn2c(C)c(NC(=O)c3ccc(N4C[C@@H](C)N[C@@H](C)C4)c4nccnc34)cc(F)c2n1 [Compound 285]
2 | > 10000 | 100 to 1000 | < 100 | > 10000 | 1000 to 10000 | C[C@@H]1CN(c2ccc(C(=O)Nc3cc(F)c4nc(Cl)cn4c3)c3nccnc23)C[C@H](C)N1 [Compound 306]
3 | > 10000 | 100 to 1000 | < 100 | > 10000 | > 10000 | Cc1cn2cc(NC(=O)c3ccc(N4CCNCC4)c4ccnnc34)ncc2n1 [Compound 120]
4 | 1000 to 10000 | 100 to 1000 | < 100 | 1000 to 10000 | 1000 to 10000 | Cc1cn2cc(NC(=O)c3ccc(N4CCNC5(CC5)C4)c4cccnc34)cc(F)c2n1 [Compound 341]
5 | > 10000 | 100 to 1000 | < 100 | > 10000 | > 10000 | Cc1cn2cc(NC(=O)c3ccc(N4C[C@@H](C)N[C@@H](C)C4)c4nccnc34)nc2c(C)n1 [Compound 359]
6 | > 10000 | > 10000 | > 10000 | > 10000 | > 10000 | Cc1cn2cc(NC(=O)c3ccc(N4C[C@@H](C)N[C@@H](C)C4)c4ncccc34)cc(F)c2n1 [Compound 358]
7 | > 10000 | < 100 | < 100 | > 10000 | 1000 to 10000 | Cc1cn2cc(NC(=O)c3ccc(N4C[C@@H](C)N[C@@H](C)C4)c4nccnc34)nc(Cl)c2n1 [Compound 279]
8 | > 10000 | > 10000 | 100 to 1000 | > 10000 | > 10000 | COc1cn2cc(NC(=O)c3ccc(N4C[C@@H](C)N[C@@H](C)C4)c4nccnc34)cc(F)c2n1 [Compound 357]
9 | 100 to 1000 | 100 to 1000 | 100 to 1000 | 100 to 1000 | 100 to 1000 | Cc1cn2cc(NC(=O)c3ccc(N4CCN5CCOC[C@@H]5C4)c4nccnc34)cc(F)c2n1 [Compound 255, (S)—N-(8-fluoro-2-methylimidazo[1,2-a]pyridin-6-yl)-8-(hexahydropyrazino[2,1-c][1,4]oxazin-8(1H)-yl)quinoxaline-5-carboxamide]
10 | 100 to 1000 | 100 to 1000 | < 100 | 1000 to 10000 | 100 to 1000 | CCN1CCN(c2ccc(C(=O)Nc3cc(F)c4nc(C)cn4c3)c3nccnc23)CC12CC2 [Compound 365]
11 | 1000 to 10000 | 100 to 1000 | < 100 | 1000 to 10000 | 1000 to 10000 | Cc1cn2cc(NC(=O)c3ccc(N4CCNCC4)c4nncnc34)cc(F)c2n1 [Compound 345]
12 | > 10000 | 100 to 1000 | < 100 | > 10000 | > 10000 | Cc1cn2cc(NC(=O)c3ccc(N4CC[C@@H](N(C)C)C4)c4nccnc34)cc(F)c2n1 [Compound 242, 8-[(3R)-3-(dimethylamino)pyrrolidin-1-yl]-N-{8-fluoro-2-methylimidazo[1,2-a]pyridin-6-yl}quinoxaline-5-carboxamide]
13 | 100 to 1000 | 100 to 1000 | < 100 | 100 to 1000 | 100 to 1000 | COc1cc2c(N3C[C@@H](C)N[C@@H](C)C3)ccc(C(=O)Nc3cc(F)c4nc(C)cn4c3)c2nn1 [Compound 273, 5-[(3R,5S)-3,5-dimethylpiperazin-1-yl]-N-{8-fluoro-2-methylimidazo[1,2-a]pyridin-6-yl}-3-methoxycinnoline-8-carboxamide]
14 | 1000 to 10000 | 100 to 1000 | < 100 | 1000 to 10000 | 1000 to 10000 | Cc1cn2cc(NC(=O)c3ccc(N4CC(C)NC(C)C4)c4nc(C)c(C)nc34)cc(F)c2n1 (stereo not drawn) [Compound 257]
15 | > 10000 | 100 to 1000 | < 100 | > 10000 | 1000 to 10000 | Cc1cn2cc(NC(=O)c3ccc(N4C[C@@H](C)N(O)[C@@H](C)C4)c4nccnc34)cc(F)c2n1 [Compound 355]
